Data: patent US6352703B1, “Compositions and methods for detecting and killing termites” (Board of Supervisors of Louisiana State University and …, priority 1997, dated 2002)
Blank lines part the entries; values can stand above or below the compound they belong to.

Experiments:
Mucor spp. fungus [1] = test: Antifungal filter paper disk test, trial 1 (Sabouraud dextrose agar); type: cell-based
Method: Mucor was isolated from a Formosan termite nest in our laboratory, a nest originally collected from a cottonwood tree in New Orleans, La. The fungus comprised a white mat that covered large areas of the nest that had been exposed to air and water. Fungus was scraped from the nest and suspended in distilled, de-ionized water with a Pasteur pipette. This suspension was streaked on Sabouraud dextrose agar (“SDA”) (Difco Laboratories, Detroit, Mich.) in 100×15 mm plates containing 20 mL SDA. Pure cultures were obtained from individual colonies on these plates as needed. Cultures were maintained on SDA plates in a 27° C. incubator without light until used.
Filter paper disks (Whatman #1, 1.5 cm) were treated with naphthalene, butylated hydroxytoluene (BHT), dioctyl phthalate, or adipic dioctyl ester, at rates of 2 μg, 20 μg, or 200 μg, dissolved in 100 μL hexane. Controls were treated with hexane alone. For each treatment, just prior to testing for antifungal properties, 1 mL of the hexane solution and ten filter paper disks were placed in a vial, and N2 was used to evaporate the hexane.
A suspension was prepared by scraping Mucor conidia (spores) from the culture plates, and mixing into distilled, deionized water with a Pasteur pipette. A thin layer of this suspension was spread over the surface of each of 130 SDA plates by placing each plate onto an inoculation turntable (Fisher Scientific, Hampton, N.H.), pipetting 0.2 mL of the suspension into the center of the plate, spinning the turntable, and spreading the suspension onto the agar with a bent glass rod. The plates were allowed to dry for two hours. A treated filter paper disk was then placed in the center of each plate (10 plates/treatment), and the plates were incubated at 27° C. The extent to which each filter paper disk was covered by fungus was determined by visual inspection (by the method described in greater detail below) after four, five, and six days.
(§1) Fungal growth on each filter paper disk was recorded by making tracings of the disks, inking in areas with visible fungal growth. The fraction of each disk covered by fungus was measured by making photocopy enlargements of these drawings, cutting out the enlarged disks, weighing the entire circle, cutting out the inked areas of the circle (corresponding to fungal growth), and weighing the latter. The fraction of each circle covered with fungus was then calculated as the ratio of these weights. (The weight of the photocopy toner was negligible.)
(§2) Coverage of filter paper disks was analyzed by the ANOVA procedure (SAS Institute, Version 6.11, Cary, N.C.). Tukey's Studentized Range (HSD) Test was used for comparison of mean separations (α=0.05).

Mucor spp. fungus [2] = test: Antifungal filter paper disk test, trial 2 (cornmeal agar, sealed plates); type: cell-based
Method: A second trial was conducted with filter papers treated with naphthalene, BHT, or 2,6-di-t-butyl-4-methyl-phenol (“DBP”). A fungal suspension was prepared as in the first trial. Spore concentrations were determined with a counting chamber (Petroff-Hauser, Hauser Scientific Partnership, Horsham, Pa.). Concentrations were adjusted to approximately 10^7 spores/mL. In the first trial fungus grew on SDA quickly, forming a thick mat that soon filled the entire petri dish. Therefore, in the second trial cornmeal agar (CMA, Difco Laboratories, Detroit, Mich.) was used to slow the growth of the fungus during the six-day observation period. A thin layer of the spore suspension was spread over the surface of each of 24 cornmeal agar plates using a turntable and bent glass rod, as previously described.
(§3) Filter paper disks were treated with naphthalene, BHT, or DBP at rates of 2 μg, 20 μg, or 200 μg, prepared as in the first trial. On each plate were placed four filter paper disks spaced equidistant from one another (one disk containing each of the three application rates of one of the test compounds, and one disk containing only the hexane control). Each plate was then covered and sealed with parafilm to reduce the release of volatile compounds. The concentration of naphthalene in the headspace was 0.04 μg/cm^3; except in trial 3 below, in which the concentration was 34.6 μg/cm^3, about 700 times the concentration we have observed in termite nest materials. The growth of fungus on and around each filter paper disk was recorded three, four, and five days after treatment. The experiment was then repeated, increasing the rates of naphthalene, BHT, and DBP to 200 μg, 600 μg, and 1000 μg (trial 3).
as §1, §2

Mucor spp. fungus [3] = test: Antifungal filter paper disk test, trial 3 (cornmeal agar, sealed plates, increased rates); type: cell-based
Method: A second trial was conducted with filter papers treated with naphthalene, BHT, or 2,6-di-t-butyl-4-methyl-phenol (“DBP”). A fungal suspension was prepared as in the first trial. Spore concentrations were determined with a counting chamber (Petroff-Hauser, Hauser Scientific Partnership, Horsham, Pa.). Concentrations were adjusted to approximately 10^7 spores/mL. In the first trial fungus grew on SDA quickly, forming a thick mat that soon filled the entire petri dish. […] A thin layer of the spore suspension was spread over the surface of each of 24 cornmeal agar plates using a turntable and bent glass rod, as previously described.
as §3, with “The growth of fungus on and around each filter paper disk was recorded three, four, and five days after treatment.” left out
as §1, §2

[4] = test system: imported red fire ant, Solenopsis invicta Buren; test: Effect of naphthalene on ants (tolerance comparison); type: in vivo; conditions: naphthalene concentrations causing no visible effect on termites
C. formosanus = conditions: in vivo
Formosan termites = test: Feeding bioassay; type: in vivo, Coptotermes formosanus; conditions: ergosterol standard
Method: Sterols identified include 3-β-dihydrocholesterol; (24s)-stigmast-5-en-3-ol; and methyl(3-β,5-α)ergostan-3-ol. […] The bioassay was conducted according to the general procedures of U.S. application Ser. No. 08/243,950, filed May 17, 1994.

[5] = trial 2, 0 μg disk (hexane only) on the same sealed plate as the compound's treated disks
[6] = trial 3, 0 μg disk (hexane only) on the same sealed plate as the compound's treated disks

Visible effect on termites (C. formosanus): no visible effect
Compound: c1ccc2ccccc2c1 [Naphthalene, naphthalene]
Fraction Covered, Day 4 (mean percentage of filter paper disk surface covered by fungus) (Mucor spp. fungus [1]; trial 1, rate 2 μg per disk): 71%
Fraction Covered, Day 5 (mean percentage of filter paper disk surface covered by fungus) (Mucor spp. fungus [1]; trial 1, rate 2 μg per disk): 86%
Fraction covered, Day 6 (mean percentage of filter paper disk surface covered by fungus) (Mucor spp. fungus [1]; trial 1, rate 2 μg per disk): 98%
Fraction Covered, Day 4 (mean percentage of filter paper disk surface covered by fungus) (Mucor spp. fungus [1]; trial 1, rate 20 μg per disk): 64%
Fraction Covered, Day 5 (mean percentage of filter paper disk surface covered by fungus) (Mucor spp. fungus [1]; trial 1, rate 20 μg per disk): 97%
Fraction covered, Day 6 (mean percentage of filter paper disk surface covered by fungus) (Mucor spp. fungus [1]; trial 1, rate 20 μg per disk): 100%
Fraction Covered, Day 4 (mean percentage of filter paper disk surface covered by fungus) (Mucor spp. fungus [1]; trial 1, rate 200 μg per disk): 90%
Fraction Covered, Day 5 (mean percentage of filter paper disk surface covered by fungus) (Mucor spp. fungus [1]; trial 1, rate 200 μg per disk): 92%
Fraction covered, Day 6 (mean percentage of filter paper disk surface covered by fungus) (Mucor spp. fungus [1]; trial 1, rate 200 μg per disk): 100%
Fraction Covered, Day 3 (mean percentage of filter paper disk surface covered by fungus) (Mucor spp. fungus [2]; [5]): 98%
Fraction Covered, Day 4 (mean percentage of filter paper disk surface covered by fungus) (Mucor spp. fungus [2]; [5]): 99%
Fraction Covered, Day 5 (mean percentage of filter paper disk surface covered by fungus) (Mucor spp. fungus [2]; [5]): 95%
Fraction Covered, Day 3 (mean percentage of filter paper disk surface covered by fungus) (Mucor spp. fungus [2]; trial 2, rate 2 μg per disk): 100%
Fraction Covered, Day 4 (mean percentage of filter paper disk surface covered by fungus) (Mucor spp. fungus [2]; trial 2, rate 2 μg per disk): 99%
Fraction Covered, Day 5 (mean percentage of filter paper disk surface covered by fungus) (Mucor spp. fungus [2]; trial 2, rate 2 μg per disk): 100%
Fraction Covered, Day 3 (mean percentage of filter paper disk surface covered by fungus) (Mucor spp. fungus [2]; trial 2, rate 20 μg per disk): 98%
Fraction Covered, Day 4 (mean percentage of filter paper disk surface covered by fungus) (Mucor spp. fungus [2]; trial 2, rate 20 μg per disk): 98%
Fraction Covered, Day 5 (mean percentage of filter paper disk surface covered by fungus) (Mucor spp. fungus [2]; trial 2, rate 20 μg per disk): 99%
Fraction Covered, Day 3 (mean percentage of filter paper disk surface covered by fungus) (Mucor spp. fungus [2]; trial 2, rate 200 μg per disk): 100%
Fraction Covered, Day 4 (mean percentage of filter paper disk surface covered by fungus) (Mucor spp. fungus [2]; trial 2, rate 200 μg per disk): 100%
Fraction Covered, Day 5 (mean percentage of filter paper disk surface covered by fungus) (Mucor spp. fungus [2]; trial 2, rate 200 μg per disk): 100%
Inhibition of growth of the fungus, comparison among compounds (Mucor spp. fungus [3]; of the five compounds tested): most effective at inhibiting the growth of this fungus
Fraction Covered, Day 3 (mean percentage of filter paper disk surface covered by fungus) (Mucor spp. fungus [3]; [6]): 0%
Fraction Covered, Day 4 (mean percentage of filter paper disk surface covered by fungus) (Mucor spp. fungus [3]; [6]): 0%
Fraction Covered, Day 5 (mean percentage of filter paper disk surface covered by fungus) (Mucor spp. fungus [3]; [6]): 0%
Fungal growth on filter paper disks (Mucor spp. fungus [3]; trial 3, all naphthalene treatments (0-1000 μg)): no fungal growth
Fungal growth on treated disks (Mucor spp. fungus [3]; trial 3, eight days after treatment): still free of fungus
Fungal growth on treated disks (Mucor spp. fungus [3]; trial 3, fourth day): still no growth
Fraction Covered, Day 3 (mean percentage of filter paper disk surface covered by fungus) (Mucor spp. fungus [3]; trial 3, rate 200 μg per disk): 0%
Fraction Covered, Day 4 (mean percentage of filter paper disk surface covered by fungus) (Mucor spp. fungus [3]; trial 3, rate 200 μg per disk): 0%
Fraction Covered, Day 5 (mean percentage of filter paper disk surface covered by fungus) (Mucor spp. fungus [3]; trial 3, rate 200 μg per disk): 0%
Fraction Covered, Day 3 (mean percentage of filter paper disk surface covered by fungus) (Mucor spp. fungus [3]; trial 3, rate 600 μg per disk): 0%
Fraction Covered, Day 4 (mean percentage of filter paper disk surface covered by fungus) (Mucor spp. fungus [3]; trial 3, rate 600 μg per disk): 0%
Fraction Covered, Day 5 (mean percentage of filter paper disk surface covered by fungus) (Mucor spp. fungus [3]; trial 3, rate 600 μg per disk): 0%
Fraction Covered, Day 3 (mean percentage of filter paper disk surface covered by fungus) (Mucor spp. fungus [3]; trial 3, rate 1000 μg per disk): 0%
Fraction Covered, Day 4 (mean percentage of filter paper disk surface covered by fungus) (Mucor spp. fungus [3]; trial 3, rate 1000 μg per disk): 0%
Fraction Covered, Day 5 (mean percentage of filter paper disk surface covered by fungus) (Mucor spp. fungus [3]; trial 3, rate 1000 μg per disk): 0%
Effect on ants [4]: paralyzed
Tolerance of C. formosanus to naphthalene compared with S. invicta (C. formosanus): significantly higher tolerance

Compound: CC(C)[C@@H](C)/C=C/[C@@H](C)[C@H]1CC[C@H]2C3=CC=C4C[C@@H](O)CC[C@]4(C)[C@H]3CC[C@]12C [ergosterol]
Feeding stimulation (Formosan termites): stimulated the feeding
